Measurements taken from patent publication US20090304816A1, “METHOD AND COMPOSITION FOR TREATING AND DIAGNOSING RESTLESS LEGS SYNDROME” (CEREUSCIENCE AB, priority 2005, published 2009).
Read-outs that look alike come from different tables or passages of the source.

Tests used:
[1] = test system: patients with moderate to severe RLS/PMLS; test: IRLSS score in two patients with RLS/PLMS, Example 1; format: in vivo
Description: (§1) RLS and PLMS are typically diagnosed by patient history and standardized questionnaires as well as by polysomnographic evaluation.

[2] = test system: patients with moderate to severe RLS/PMLS; details: both patients; pramipexole 0.35 mg once daily for 21 days
Protocol: (§3) Due to remaining RLS complaints iron sucrose therapy in the dosage 500 mg i.v. twice, was introduced during one week (FIG. 1; C).

[3] = test system: patients with moderate to severe RLS/PMLS; details: pramipexole 0.35 mg once daily evening dose for 21 days
Protocol: as §3

[4] = test system: patient with clinical symptoms of RLS; test: IRLSS score in a third patient with RLS, Example 2; format: in vivo; details: iron dextran, after discontinuation of dopaminergic treatment (FIG. 2; E)
Protocol: as §1
(§2) A subsequent clinical observational study included a patient with clinical symptoms of RLS and an IRLSS score of 26 on the diagnostic evaluation under treatment with L-dopa (levodopa) and carbidopa (Sinernet®, fixed combination dosage of 100 mg L-dopa and 25 mg carbidopa) (FIG. 2; A). The patient needed to be treated with altogether three tablets per evening in order to obtain acceptable symptom relief (IRLSS score 4. FIG. 2; B). […] An attempt to discontinue dopaminergic treatment altogether failed. Following this discontinuation there was a substantial symptom relapse (IRLSS score 15. FIG. 2; E).

[5] = test system: patient with clinical symptoms of RLS; test: Side effects and augmentation in a third patient with RLS, Example 2; format: in vivo; details: iron dextran 200 mg daily
Protocol: as §2

iron sucrose gave an IRLSS score ([1]; patient with baseline IRLSS 28, after iron sucrose infusions, pramipexole discontinued for one week (FIG. 1; D)) of 18 and an IRLSS score ([1]; patient with baseline IRLSS 30, after iron sucrose infusions, pramipexole discontinued for one week (FIG. 1; D)) of 14.
With CCCN[C@H]1CCc2nc(N)sc2C1 [Pramipexole] the IRLSS score ([1]; patient with baseline IRLSS 28, pramipexole 0.35 mg once daily, day 21 (FIG. 1; B)) was 17, the IRLSS score ([1]; patient with baseline IRLSS 30, pramipexole 0.35 mg once daily, day 21 (FIG. 1; B)) was 15 and the side effects [2] was “No side effects were reported”. The PLMI ([3]; patient with baseline PLMI 3) was 0 and the PLMI ([3]; patient with baseline PLMI 17) was 2.
With iron dextran the IRLSS score [4] was 15 and the adverse effects [5] was “did not cause any adverse effects”.
